Reference: patent publication US11434490B2, “Fluorogen-binding RNA aptamers” (CENTRE NATIONAL DE LA RECHERCHE SCIENTIFIQUE, priority 2017, dated 2022)

Tests used:
[1] = Fluorescence titration, binding affinity for TO1-ME; conditions: ligand TO1-ME
Text: (§1) We determined the affinity and fluorescence enhancement of four compounds: TO1-OAc (TO1-acetate), TO1-ME (TO1-methylester), TO1-PA (TO1-propanylamide), TO1-PE (TO1-pentenoylester) (FIG. 42, Table 8 & 9). Binding affinity and fluorescence enhancement of TO1-OAc is drastically diminished, and nearly identical between the wild-type and A22U mutant. […] Further extension of the linker stabilizes the binding pocket by stacking on T3 but becomes sterically hindered by a bulky purine in position 22. The A22U mutation would limit steric clashes while preventing misfolding of the G-quadruplex core. Thus, the improved properties of the Mango-II A22U mutant may arise from improved packing of the linker of the fluorophore with an RNA with a homogeneous or predominant conformation.
(§2) Fluorescence readings were recorded using a Varian Cary Eclipse Spectrophotometer set to measure at the maximum excitation and emission wavelengths of the Mango II aptamer dye complex. Fluorescence titrations were performed in Mango selection buffer (WB: 140 mM KCl, 1 mM MgCl2, 10 mM NaH2PO4 pH 7.2, 0.05% Tween-20).

[2] = Fluorescence titration, binding affinity for TO1-PA; conditions: ligand TO1-PA
Text: as §1, §2

[3] = Fluorescence titration, binding affinity for TO1-PE; conditions: ligand TO1-PE
Text: as §1, §2

[4] = Fluorescence enhancement of TO1-Biotin; type: biochemical; conditions: ligand TO1-B; 0.82 μM ligand, 2 μM RNA
Procedure: (§3) The bandwidth for all measurements was 1.5 nm for all experiments. Measurements were performed in a 0.2 cm path length cuvette in a background of 20 mM MOPS pH 7.0, 150 mM KCl, 10 μM EDTA. Fluorescence readings were taken in the absence of RNA at a ligand concentration of 0.82 μM. A concentrated, annealed stock of RNA was then added to the cuvette resulting in a final concentration of 2 μM RNA and allowed to equilibrate for 1 minute prior to taking an emission reading. Fluorescence enhancement was determined by dividing the fluorescence signal of ligand in the presence of RNA by the fluorescence signal in the absence of RNA corrected for the background of the instrument.

[5] = Fluorescence enhancement of TO3-Biotin; type: biochemical; conditions: ligand TO3-B; 0.82 μM ligand, 2 μM RNA
Procedure: as §3

[6] = Fluorescence enhancement of TO1-OAc; type: biochemical; conditions: ligand TO1-OAc
Procedure: as §3

[7] = Fluorescence enhancement of TO1-ME; type: biochemical; conditions: ligand TO1-ME
Procedure: as §3

[8] = Fluorescence enhancement of TO1-PA; type: biochemical; conditions: ligand TO1-PA
Procedure: as §3

[9] = Fluorescence enhancement of TO1-PE; type: biochemical; conditions: ligand TO1-PE
Procedure: as §3

[10] = Fluorescence lifetime measurements (TCSPC); type: physicochemical; conditions: for α1 (%): amplitude of τ1; for α2 (%): amplitude of τ2; for τi (ns), intensity-weighted average lifetime / τa (ns), amplitude-weighted average lifetime: calculated from the components; for τ1 (ns) / τ2 (ns): free TO1-Biotin or RNA bound to TO1-Biotin
Procedure: Fluorophore lifetime measurements were performed by using an in-house modified 2-photon fluorescence microscope based on a Zeiss LSM 510 unit capable of Time-Correlated Single-Photon Counting (TCSPC) measurements. A diode-pumped solid state laser (Millenia Prime, Spectra Physics, Newport, Calif.) was used to pump a Ti:Sapphire Tsunami oscillator (Model 3960C, Spectra Physics, Newport, Calif.), operating in femtosecond mode, at a repetition rate of 80 MHz, and tunable in the near infrared region. The output beam of the Ti:Sapphire laser was directed into an acousto-opto modulator (MT110/B50/A1.5 IR/S, AA Optoelectronic, France), controlled through the Zeiss LSM electronics and software, to attenuate the power before steering it into the LSM unit. The beam was reflected onto a 700/488 dichroic mirror and directed into the back aperture of a Plan Apochromat 63×, NA 1.4, oil immersion objective, and expanded to fill the back pupil. The fluorescence from the sample was collected from the same objective, intercepted by a 733LP dichroic mirror, sent toward the back port of the microscope, filtered through an ET700SP-2P filter (Chroma Technologies, Bellows Falls, Vt.) to remove residual scattering from the laser, and further passed through a 540/50 nm bandpass filter (Semrock, Rochester, N.Y.). The fluorescence is finally focused onto the photocathode of a H7422P-40 GaAsP photomultiplier detector (Hamamatsu, Japan). The large NA of the objective contributes to a certain degree of depolarization of the incoming excitation beam, as well as of the detected fluorescence. According to Fisz (J. Chem. Phys. A, 2007 and 2009), this would allow one to omit an analyzer (polarizer) in front of our detector, because magic angle conditions are achieved by using a 45° angle detection (i.e. unpolarized) configuration. The signal from the detector and the synchronization signal from the laser are directed into an SPC150 photon counting card (Becker & Hickl, Germany), controlled by the SPCM64 proprietary software from the manufacturer (Becker & Hickl, Germany). The data were collected with a 12.5 ns time window in TCSPC histogramming mode with 1024 channels, with a width of 12.2 ps each.
For the experiments the laser was tuned at 780 nm, and the power adjusted to 18 mW before the objective lens. RNA samples were diluted to a concentration of ˜3-5 μM in buffer. TO-1B was measured at a concentration of 50 μM due to low fluorescence signal of the compound, compared to the RNA-bound version. An 80 μl droplet was deposited onto a #1.5 coverslip, previously treated with BSA to avoid nonspecific binding of RNA to the glass, and covered to avoid evaporation. The excitation was focused ˜5 μm above the upper surface of the coverslip to reduce scatter and to avoid collecting signal from molecules immobilized on the glass surface. The beam was kept stationary by using the LSM controller to simply open the excitation shutter, and data were collected until the maximum count in the peak channel of the TCSPC histogram reached 10^4 photons. Experiments were repeated in triplicate. An instrument response function (IRF) was collected on every day of measurement by recording the second harmonic generation (SHG) signal from crushed urea crystals deposited onto a glass coverslip, in this case the bandpass filter before the detector was substituted with a 440 nm short pass filter to collect the 390 nm SHG. The data collected with the SPCM64 software were stored as *.sdt files for subsequent analysis.
Data were analyzed using the SPCImage software (Becker & Hickl, Germany). The fluorescence decay curves were fit using exponential functions of the form:
Where n is at most equal to 3 in our software. The data fitting routine uses a least-square algorithm where the exponential function is first reconvoluted with the measured IRF and then fit to the data. The shift of the IRF for each dataset, as well as a scatter contribution were included as free parameters during fitting. […]

## Mango-II: minimal construct engineered from isolate R2-1; SEQ ID NO: 6902 GCGUACGAAGGAGAGGAGAGGAAGAGGAGAGUACGC (chemistry not given here)
[1]
  Kd: 2.41 ± 0.54 nM
[2]
  Kd: 1.04 ± 0.57 nM
[3]
  Kd: 0.37 ± 0.06 nM
[4]
  FIE (fluorescence enhancement): 1303 ± 20
[5]
  FIE (fluorescence enhancement): 61 ± 2
[6]
  FIE (fluorescence enhancement): 258 ± 10
[7]
  FIE (fluorescence enhancement): 401 ± 6
[8]
  FIE (fluorescence enhancement): 493 ± 5
[9]
  FIE (fluorescence enhancement): 783 ± 13
[10]
  α1 (%): 45%
  α2 (%): 55%
  τi (ns), intensity-weighted average lifetime: 2.05 ns
[10]; listed as Mango II wt
  τa (ns), amplitude-weighted average lifetime: 1.51 ns
  τ1 (ns): 0.52 ns
  τ2 (ns): 2.33 ns
[10]; listed as wild-type Mango-II
  τa (ns), amplitude-weighted average lifetime: 1.51 (±0.06) ns
  τ1 (ns): 0.52 (±0.02) ns
  τ2 (ns): 2.33 (±0.12) ns

B1: Mango II - A22U: Mango-II point mutant; SEQ ID NO: 6903 / 6905 (nucleic acid)
chain 1: GCGUACGAAGGAGAGGAGAGGUAGAGGAGAGUACGC
chain 2: GGCACGUACGAAGGAGAGGAGAGGUAGAGGAGAGUACGUGC
modifications: chemistry not given here
[1]
  Kd: 4.81 ± 1.02 nM
[2]
  Kd: 2.21 ± 1.09 nM
[3]
  Kd: 1 ± 0.13 nM
[4]
  FIE (fluorescence enhancement): 1543 ± 24
[5]
  FIE (fluorescence enhancement): 46 ± 3
[6]
  FIE (fluorescence enhancement): 315 ± 4
[7]
  FIE (fluorescence enhancement): 302 ± 6
[8]
  FIE (fluorescence enhancement): 275 ± 3
[9]
  FIE (fluorescence enhancement): 825 ± 14
[10]
  α1 (%): 45%
  α2 (%): 55%
  τa (ns), amplitude-weighted average lifetime: 1.92 ns
  τi (ns), intensity-weighted average lifetime: 2.53 ns
  τ1 (ns): 0.72 ns
  τ2 (ns): 2.904 ns
[10]; listed as A22U mutant
  τa (ns), amplitude-weighted average lifetime: 1.92 (±0.03) ns
  τ1 (ns): 0.72 (±0.01) ns
  τ2 (ns): 2.904 (±0.001) ns
